From paper PMC7115536 (European Journal of Medicinal Chemistry, 2011)

Columns and labels:
[1] = cited from earlier work
HEL cell cultures = conditions: human
WT HBV = format: cell-based
[2] = Stability studies at 37 °C in complete culture medium and CEM-SS cell extracts; format: in vitro ADME; conditions: for t1/2 cell extracts (half-life of decomposition): CEM-SS cell extracts, 0.1 mM

Row | Compound | Stability in all tested media [1] | Minimum cytotoxic concentration (HEL cell cultures) | Potency relative to PMEA (more potent) (WT HBV) | t1/2 cell extracts (half-life of decomposition) [2] | Degradation in complete culture medium after 24 h ([2]; complete culture medium, 24 h)
1 | Nc1ncnc2c1ncn2CCOCP(=O)(O)O [PMEA, 9-(2-Phosphonomethoxyethyl)adenine, reference compound] | stable | >200 µM |  |  | 
2 | C[C@H](Cn1cnc2c(N)ncnc21)OCP(=O)(O)O [PMPA, (R)-9-(2-Phosphonomethoxypropyl)-adenine, reference compound] | stable | >200 µM |  |  | 
3 | Nc1ncnc2c1ncn2CCOCP(=O)([O-])[S-].[Na+].[Na+] (stereo not shown) [S-PMEA 3, {[2-(6-Amino-9H-purin-9-yl)ethoxy]methyl}phosphonothioic acid] |  | >200 µM | 1.5–2.5 fold | Stable ^c | 
4 | C[C@H](Cn1cnc2c(N)ncnc21)OCP(=O)([O-])[S-].[Na+].[Na+] (stereo partly drawn) [S-PMPA 4, ({[(2R)-1-(6-Amino-9H-purin-9-yl)propan-2-yl]oxy}methyl)phosphonothioic acid] |  | >200 µM |  | Stable ^c | 20%
